Patent US7741435B2, “Substance P-saporin (SP-SAP) conjugates and methods of use thereof” (Advanced Targeting Systems, Inc., priority 1997, dated 2010)

Key:
[1] = system: NK-1R-expressing spinal cord neurons; experiment: Internalization and cytotoxicity in primary cultures of spinal cord neurons; format: cell-based, rat; details: for morphological or cytotoxic changes in NK-1R-expressing and non-NK-1R, MAP-2 neurons: treatment alone
Procedure: SP-SAP internalization and cytotoxicity was examined in primary cultures of neonatal rat spinal cord neurons where approximately 15% of the neurons express NK-1R. All procedures were approved by Animal Care Committee at the VA Medical Center and the University of Minnesota. Neurons were cultured from the spinal cords of 18-day embryonic Holtzman rats (Harlan Sprague Dawley, Madison, Wis.). The whole spinal cord was dissected out of the rat and placed in 4° C. Puck's saline supplemented with 40 mM. glucose, 50 mM sucrose, and 10 mM Hepes (DISG media, pH 7.4). The spinal cords were then dissociated by trituration (15-20 times) through a small bore serological pipet. The resulting cell suspension was centrifuged at 4° C. for 5 min at 1500 rpm in a Sorvall RC-3B centrifuge (DuPont, Newtown, Conn.). The supernatant was removed and the pellet resuspended in Dulbecco's modified Eagle's medium (DMEM; Sigma Chemical Co., St. Louis, Mo.) plus 5% equine serum and 5% calf serum (v/v) (Hyclone, Logan, Utah). The cell suspension was plated on poly-L-ornithine coated 2-well chamber slides at a density of 100,000 cells/ml, and incubated at 37° C. with 9% CO2. After 4 days the mitotic inhibitors, 5-fluoro-2′-deoxyuridine and uridine were added. At 7 days the media was replaced with DMEM plus 10% equine serum (v/v). The cells were incubated unil 14 days post-culture with media changes every 4th day.
At day 14 post-culture, either saline or SP, SP-SAP conjugate or saporin (SAP) were added to a final concentration of 10^−7 M. The cells were incubated for 12 hr with the SP-SAP or SAP compounds at which time the compounds were removed from the culture and fresh media was added. The cultures were then allowed to continue until the desired timepoints (2 hr. 1, 4, 7, and 10 days) at which time the experiment was terminated and the cells were processed for immunohistochemistry by fixing for 20 min at 22° C. with 4% formalin in a phosphate buffered saline solution as previously described (2,39-42). […] Two hours following treatment with 10^−7 M SP-SAP, but not 10^−7 M SAP, NK-1R internalization was visualized using an antibody that recognized NK-1R (FIG. 8A) and intracellular accumulation of SAP was visualized using an antibody that recognized SAP (FIG. 8B)
In contrast, one day following treatment with SP alone the majority of NK-1R had recycled to the plasma membrane. Thus, within 24 hours after SP-SAP internalization these neurons could no longer efficiently recycle NK-1R back to the plasma membrane.

[2] = General observation after intrathecal infusion (body weight, food intake, behavior); format: in vivo, rat; details: for 28 days after intrathecal injection
[3] = system: capsaicin-induced hyperalgesia in rats; experiment: Capsaicin-induced nocifensive behavior and mechanical and heat hyperalgesia after intrathecal pretreatment; format: in vivo, rat; details: compared to normal untreated animals, any time point
From the text: Measures of nocifensive behavior and hyperalgesia produced by intraplantar injection of capsaicin were obtained as described previously (48). Hyperalgesia is defined as an increase in withdrawal responses. The capsaicin model of hyperalgesia used in these experiments was chosen as it has been well characterized, it clearly produces hyperalgesia in humans and it is the only model of hyperalgesia that can be used in parallel animal and human studies. Capsaicin (Sigma Chemical Co., St. Louis, Mo.) was dissolved in a vehicle of 7.5% polyxyethylene sorbitan monooleate (Tween-80) and saline, and given into the plantar surface of one hindpaw. Each animal received one injection of […]. The duration of nocifensive behavior, defined as lifting and guarding the injected paw, was measured for the first five minutes after injection.
Withdrawal responses to heat were determined using a procedure previously described (49). […] The start of each trial activated a timer and withdrawal latencies to the nearest 0.1 sec were measured automatically by a photocell which terminated each trial and stopped the timer upon withdrawal of the paw. […]
To measure withdrawal responses to mechanical stimuli, rats were placed under a clear plastic cage on an elevated plastic mesh floor (1 cm^2 perforations). […] The frequency was determined for each hindpaw. […]

[4] = system: NK-1R-expressing lamina I spinal cord neurons; experiment: Cytotoxicity of intrathecal infusion in the spinal cord (immunohistochemistry, confocal microscopy); details: for change in NK-1R immunoreactivity in lamina I, spinal segments L2-L5: intrathecal injection alone, any time point examined; for change in cell number, morphology or fluorescence level of any of the cell markers examined: treatment alone, 28 days
Procedure: Animals were anesthetized with an intramuscular injection of Ketamine (100 mg/kg) & Acepromazine (1 mg/kg) and placed in a stereotaxic frame. An 8.5-cm length of PE-10 tubing (inner diameter: 0.28 mm, outer diameter: 0.61 mm), serving as an inflow cannula, was inserted into the subarachnoid space via an incision in the atlanto-occipital membrane. The cannula terminated in the caudal region of the lumbar enlargement (approximately L4). […] 5 min after spinal superfusion, the cannula was carefully withdrawn and the wound closed with 3-0 silk sutures.
Immunohistochemistry and fluorescent confocal microscopy was performed as previously described (46) using an MRC-1024 Confocal Imaging System (Bio-Rad, Boston, Mass.) and an Olympus BH-2 microscope equipped for epifluorescence (Lake Success, N.Y.). For cell counts the spinal cords were cut in the sagittal plane whereas for immunofluorescence measurements the spinal cords were cut in either the sagittal or coronal plane. Both of the microscopes were set up as previously described (46,47). SPR was detected by a polyclonal rabbit anti-SPR antibody (1:5000; a kind gift from S. Vigna) raised against a 15 amino acid peptide sequence (SPR393-407) at the COOH-terminus of the rat SPR. […] Calbindin was detected by a monoclonal mouse anti-calbindin antibody (Sigma, 1:300). Microtubule-associated protein (MAP-2) was detected by a monoclonal mouse anti MAP-2 antibody (Sigma, 1:750). Choline acetyl transferase (CHAT) was detected by a monoclonal mouse anti-ChAT antibody (Chemicon, 1:500). Glial Fibrillary Acidic Protein was detected by a polyclonal rabbit anti-GFAP antibody (DAKO, 1:450). OX-42 was detected using a monoclonal mouse antibody (Chemicon, 1:2,000). Saporin was detected by a polyclonal goat anti-Saporin antibody (Advanced Targeting Systems, 1:350). […] All primary (overnight, 22° C.) and secondary (3 hours, 22° C.) antibodies were applied in cocktails with 1% goat serum and 0.3% Triton X-100 in PBS solution. Finally, the tissue sections were washed for 20 min in PBS (pH 7.4, 22_C), mounted onto gelatin-coated slides, and coverslipped using PBS-glycerine containing 1.0% p-phenylenediamine to reduce photobleaching.
To determine the number of immunofluorescent cell bodies (Table 1) the slides were viewed through a 1.0 cm^2 eyepiece grid, which was divided into one hundred 1 mm×1 mm units, and the total number of immunofluorescent cell bodies/unit area were counted. To calculate SPR immunofluorescence intensity, images of the 60 μm thick tissue sections were obtained with the BioRad MRC1024 laser scanning confocal fluorescent imaging system and analyzed using NIH Image 1.7.
Cell numbers and immunofluorescence levels were determined using confocal microscopy. […] All data points represent an n=6 and are expressed as +/−s.e.m. and significant differences calculated by a one-way ANOVA and Bonferroni comparisons (* denotes P<0.01).

NK-1R = biological target: T1, NK-1R (Rattus norvegicus, UniProt P14600); experiment: Inhibition of radiolabeled SP binding to spinal cord membrane homogenates; details: iodinated SP 150 pM, 100 nM nonlabeled competitor, FIG. 4
T1 construct: from tissue; host or cells: membrane homogenate (spinal cord according to the assay title)
T1 sequence (P14600 whole entry): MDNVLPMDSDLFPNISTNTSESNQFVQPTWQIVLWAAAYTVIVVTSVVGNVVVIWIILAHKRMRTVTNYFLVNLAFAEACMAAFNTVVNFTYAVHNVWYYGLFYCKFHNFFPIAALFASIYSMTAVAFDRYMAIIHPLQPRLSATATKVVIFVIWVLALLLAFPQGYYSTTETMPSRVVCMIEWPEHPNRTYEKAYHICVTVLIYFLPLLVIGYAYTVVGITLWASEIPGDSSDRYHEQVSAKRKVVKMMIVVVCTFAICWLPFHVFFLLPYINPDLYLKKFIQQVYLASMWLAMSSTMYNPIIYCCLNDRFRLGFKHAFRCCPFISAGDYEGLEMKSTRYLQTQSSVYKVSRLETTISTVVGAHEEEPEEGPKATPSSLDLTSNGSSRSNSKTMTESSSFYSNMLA
Procedure: Homogenate is prepared and binding performed as previously described (26). […] Membrane-bound label is separated from free label by centrifugation and measured with a gamma counter. Control is no addition of competitor.

[5] = L4 segment, 28 days post-treatment, intrathecal, n=6, ± s.e.m.

COc1ccccc1CC(=N)N1C[C@@H]2C(=O)CCC(c3ccccc3)(c3ccccc3)[C@@H]2C1 [RP67580]
block of SP- and SP-SAP-induced NK-1R internalization ([1]; 5×10^−6 M antagonist): blocked

RPKPQQFFGLM [SP]
changes in body weight, food intake, alertness, locomotion or grooming behavior [2]: no detectable changes | change in mechanical or thermal hyperalgesia, or nocifensive behavior produced by capsaicin [3]: no significant change | change in NK-1R immunoreactivity in lamina I, spinal segments L2-L5 [4]: no change | change in cell number, morphology or fluorescence level of any of the cell markers examined [4]: did not produce a significant change | NK-1R internalization ([1]; 10^−7 M, cultured spinal cord neurons): induced a rapid and similar degree of NK-1R internalization | morphological or cytotoxic changes in NK-1R-expressing and non-NK-1R, MAP-2 neurons ([1]; 10^−7 M): no significant morphological or cytotoxic changes

SAP: potent ribosome-inactivating protein isolated from the seeds of the plant Saponaria officinalis
changes in body weight, food intake, alertness, locomotion or grooming behavior [2]: no detectable changes | change in mechanical or thermal hyperalgesia, or nocifensive behavior produced by capsaicin [3]: no significant change | inhibition of iodinated SP binding (NK-1R): little or no inhibition | Percent immunoreactive positive cells (saline = 100), SP (DRG) ([4]; L4 dorsal root ganglia, 28 days post-treatment, intrathecal, n=6, ± s.e.m.): 91 ± 11% | Percent immunofluorescence level, GFAP (lamina I) [4, 5]: 90 ± 13% | Percent immunofluorescence level, MAP-2 (lamina I) [4, 5]: 100 ± 14% | Percent immunofluorescence level, SP (laminae I and II) [4, 5]: 96 ± 3% | Percent immunofluorescence level, SPR (laminae I and II) [4, 5]: 95 ± 3% | Percent immunoreactive positive cells (saline = 100), Calbindin (laminae I and II) [4, 5]: 96 ± 7% | Percent immunoreactive positive cells (saline = 100), ChAT (motor neurons) [4, 5]: 116 ± 24% | Percent immunoreactive positive cells (saline = 100), SPR (lamina III and IV) [4, 5]: 79 ± 13% | Percent immunoreactive positive cells (saline = 100), SPR (laminae I and II) [4, 5]: 80 ± 16% | change in NK-1R immunoreactivity in lamina I, spinal segments L2-L5 [4]: no change | Percent immunofluorescence level, SPR (preganglionic sympathetic) ([4]; spinal segment T10, 28 days post-treatment, intrathecal, n=6, ± s.e.m.): 100 ± 9% | change in cell number, morphology or fluorescence level of any of the cell markers examined [4]: did not produce a significant change | morphological or cytotoxic changes in NK-1R-expressing and non-NK-1R, MAP-2 neurons ([1]; 10^−7 M): no significant morphological or cytotoxic changes

neurokinin A
inhibition of iodinated SP binding (NK-1R): significant interaction with the NK-1R

neurokinin B
inhibition of iodinated SP binding (NK-1R): little or no inhibition
